Measurements published in PMC10879502, “Linking ATP and allosteric sites to achieve superadditive binding with bivalent EGFR kinase inhibitors” (Communications Chemistry, 2024).

Key:
Assay in all cases: KINOMEscan
Type in all cases: binding
Conditions in all cases: 1 μM
[1] = target: T1, ABL1(F317L)-phosphorylated (Homo sapiens, UniProt P00519, F317L)
T1 construct: purchased Eurofins DiscoverX Corporation

[2] = target: T2, ABL1(H396P)-phosphorylated (Homo sapiens, UniProt P00519, H396P)
T2 construct: purchased Eurofins DiscoverX Corporation

[3] = target: T3, ABL1(Q252H)-phosphorylated (Homo sapiens, UniProt P00519, Q252H)
T3 construct: purchased Eurofins DiscoverX Corporation

[4] = target: T4, ABL1(T315I)-phosphorylated (Homo sapiens, UniProt P00519, T315I)
T4 construct: purchased Eurofins DiscoverX Corporation

AXL = AXL (Homo sapiens, UniProt P30530)
BRK = target: T5, BRK (Homo sapiens, UniProt Q13882)
T5 construct: purchased Eurofins DiscoverX Corporation (KINOMEscan)

CAMK4 = target: T6, CAMK4 (Homo sapiens, UniProt Q16566)
T6 construct: purchased Eurofins DiscoverX Corporation (KINOMEscan)

CDK4-cyclinD1 = CDK4-cyclinD1 (Homo sapiens, UniProt P11802)
CDK4-cyclinD3 = CDK4-cyclinD3 (Homo sapiens, UniProt P11802)
CSNK1A1 = CSNK1A1 (Homo sapiens, UniProt P48729)
CSNK2A1 = target: T7, CSNK2A1 (Homo sapiens, UniProt P68400)
T7 construct: purchased Eurofins DiscoverX Corporation

CTK = target: T8, CTK (Homo sapiens, UniProt P42679)
T8 construct: purchased Eurofins DiscoverX Corporation

DLK = target: T9, DLK (Homo sapiens, UniProt Q12852)
T9 construct: purchased Eurofins DiscoverX Corporation

DRAK2 = target: T10, DRAK2 (Homo sapiens, UniProt O94768)
T10 construct: purchased Eurofins DiscoverX Corporation

EGFR(S752-I759del) = EGFR(S752-I759del) (Homo sapiens, UniProt P00533, DEL752-759)
ERK2 = ERK2 (Homo sapiens, UniProt P28482)
ERK3 = ERK3 (Homo sapiens, UniProt Q16659)
ERK4 = ERK4 (Homo sapiens, UniProt P31152)
ERN1 = ERN1 (Homo sapiens, UniProt O75460)
GRK3 = target: T11, GRK3 (Homo sapiens, UniProt P35626)
T11 construct: purchased Eurofins DiscoverX Corporation

GRK4 = target: T12, GRK4 (Homo sapiens, UniProt P32298)
T12 construct: purchased Eurofins DiscoverX Corporation

IKK-beta = target: T13, IKK-beta (Homo sapiens, UniProt O14920)
T13 construct: purchased Eurofins DiscoverX (KINOMEscan)

[5] = target: T14, JAK1(JH1domain-catalytic) (Homo sapiens, UniProt P23458)
T14 construct: JAK1(JH1domain-catalytic); purchased Eurofins DiscoverX (KINOMEscan)

LATS2 = target: T15, LATS2 (Homo sapiens, UniProt Q9NRM7)
T15 construct: purchased Eurofins DiscoverX Corporation

MARK1 = target: T16, MARK1 (Homo sapiens, UniProt Q9P0L2)
T16 construct: purchased Eurofins DiscoverX Corporation

MET(M1250T) = target: T17, MET(M1250T) (Homo sapiens, UniProt P08581, M1250T)
T17 construct: purchased Eurofins DiscoverX Corporation

NEK2 = target: T18, NEK2 (Homo sapiens, UniProt P51955)
T18 construct: purchased Eurofins DiscoverX Corporation

NEK4 = target: T19, NEK4 (Homo sapiens, UniProt P51957)
T19 construct: purchased Eurofins DiscoverX Corporation

p38-beta = p38-beta (Homo sapiens, UniProt Q15759)
PCTK2 = PCTK2 (Homo sapiens, UniProt Q00537)
PIK3CA(E545K) = PIK3CA(E545K) (Homo sapiens, UniProt P42336, E545K)
PLK2 = PLK2 (Homo sapiens, UniProt Q9NYY3)
PRKG1 = PRKG1 (Homo sapiens, UniProt Q13976)
RIOK1 = RIOK1 (Homo sapiens, UniProt Q9BRS2)
[6] = target: RPS6KA5(Kin.Dom.1-N-terminal) (Homo sapiens, UniProt O75582)
[7] = target: RSK3(Kin.Dom.2-C-terminal) (Homo sapiens, UniProt Q15349)
SGK2 = SGK2 (Homo sapiens, UniProt Q9HBY8)
SLK = SLK (Homo sapiens, UniProt Q9H2G2)
TLK2 = target: T20, TLK2 (Homo sapiens, UniProt Q86UE8)
T20 construct: purchased Eurofins DiscoverX Corporation

TNIK = target: T21, TNIK (Homo sapiens, UniProt Q9UKE5)
T21 construct: purchased Eurofins DiscoverX Corporation

TRKA = target: T22, TRKA (Homo sapiens, UniProt P04629)
T22 construct: purchased Eurofins DiscoverX Corporation

Sequence of CDK4-cyclinD3 (P11802 whole entry): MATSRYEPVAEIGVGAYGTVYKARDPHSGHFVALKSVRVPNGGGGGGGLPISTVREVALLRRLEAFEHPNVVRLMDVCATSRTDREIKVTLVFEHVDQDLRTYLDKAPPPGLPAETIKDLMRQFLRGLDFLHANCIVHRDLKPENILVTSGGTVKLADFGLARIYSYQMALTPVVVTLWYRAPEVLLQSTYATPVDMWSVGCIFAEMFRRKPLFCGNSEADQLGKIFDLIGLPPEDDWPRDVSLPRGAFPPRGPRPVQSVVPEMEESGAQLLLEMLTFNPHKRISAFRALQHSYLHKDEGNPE
Sequence of CDK4-cyclinD3 (P30281 whole entry partner): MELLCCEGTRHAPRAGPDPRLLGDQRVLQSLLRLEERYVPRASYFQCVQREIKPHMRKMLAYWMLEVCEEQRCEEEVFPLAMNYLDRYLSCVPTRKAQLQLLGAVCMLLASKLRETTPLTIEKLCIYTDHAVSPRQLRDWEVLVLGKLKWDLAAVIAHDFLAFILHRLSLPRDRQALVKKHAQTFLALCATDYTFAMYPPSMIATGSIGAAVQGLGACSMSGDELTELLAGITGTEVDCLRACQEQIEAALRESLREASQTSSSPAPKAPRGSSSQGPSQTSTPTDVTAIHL
Sequence of CDK4-cyclinD1 (P11802 whole entry): as the sequence (P11802 whole entry) above
Sequence of CDK4-cyclinD1 (P24385 whole entry partner): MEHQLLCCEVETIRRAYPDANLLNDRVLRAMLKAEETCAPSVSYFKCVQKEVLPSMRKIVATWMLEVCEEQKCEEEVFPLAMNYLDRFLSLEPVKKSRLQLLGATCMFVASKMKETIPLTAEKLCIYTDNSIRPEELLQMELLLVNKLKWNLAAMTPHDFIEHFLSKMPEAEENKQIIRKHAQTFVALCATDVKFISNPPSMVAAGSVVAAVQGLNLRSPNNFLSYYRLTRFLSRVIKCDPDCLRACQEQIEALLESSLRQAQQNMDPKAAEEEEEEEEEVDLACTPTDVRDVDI
Sequence of ERK4 (P31152 whole entry): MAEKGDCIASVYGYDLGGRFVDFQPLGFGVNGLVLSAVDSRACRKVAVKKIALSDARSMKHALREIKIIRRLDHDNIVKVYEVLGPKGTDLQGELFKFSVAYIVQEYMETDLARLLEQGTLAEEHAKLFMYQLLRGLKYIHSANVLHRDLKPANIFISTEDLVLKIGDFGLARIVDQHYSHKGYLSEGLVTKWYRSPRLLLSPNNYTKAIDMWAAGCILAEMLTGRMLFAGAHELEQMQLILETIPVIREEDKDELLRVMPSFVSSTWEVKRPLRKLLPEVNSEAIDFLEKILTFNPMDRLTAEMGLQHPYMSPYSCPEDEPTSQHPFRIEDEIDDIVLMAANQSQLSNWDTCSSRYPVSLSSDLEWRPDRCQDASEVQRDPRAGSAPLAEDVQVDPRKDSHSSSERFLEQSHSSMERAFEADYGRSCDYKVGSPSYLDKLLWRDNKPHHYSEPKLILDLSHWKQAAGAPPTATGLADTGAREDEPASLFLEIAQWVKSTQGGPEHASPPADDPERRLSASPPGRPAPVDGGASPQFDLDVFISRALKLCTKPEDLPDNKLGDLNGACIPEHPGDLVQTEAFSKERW
T7 sequence (P68400 whole entry): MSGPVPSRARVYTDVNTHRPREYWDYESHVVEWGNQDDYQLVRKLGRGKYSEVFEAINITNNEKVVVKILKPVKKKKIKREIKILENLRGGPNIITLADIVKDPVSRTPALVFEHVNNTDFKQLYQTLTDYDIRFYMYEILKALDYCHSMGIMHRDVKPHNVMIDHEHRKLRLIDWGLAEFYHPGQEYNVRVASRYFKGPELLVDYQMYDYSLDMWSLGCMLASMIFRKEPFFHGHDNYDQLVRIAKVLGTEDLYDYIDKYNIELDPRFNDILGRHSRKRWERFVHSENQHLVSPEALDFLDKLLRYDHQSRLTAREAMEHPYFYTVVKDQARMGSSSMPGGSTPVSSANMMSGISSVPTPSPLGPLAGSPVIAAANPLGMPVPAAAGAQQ
T6 sequence (Q16566 whole entry): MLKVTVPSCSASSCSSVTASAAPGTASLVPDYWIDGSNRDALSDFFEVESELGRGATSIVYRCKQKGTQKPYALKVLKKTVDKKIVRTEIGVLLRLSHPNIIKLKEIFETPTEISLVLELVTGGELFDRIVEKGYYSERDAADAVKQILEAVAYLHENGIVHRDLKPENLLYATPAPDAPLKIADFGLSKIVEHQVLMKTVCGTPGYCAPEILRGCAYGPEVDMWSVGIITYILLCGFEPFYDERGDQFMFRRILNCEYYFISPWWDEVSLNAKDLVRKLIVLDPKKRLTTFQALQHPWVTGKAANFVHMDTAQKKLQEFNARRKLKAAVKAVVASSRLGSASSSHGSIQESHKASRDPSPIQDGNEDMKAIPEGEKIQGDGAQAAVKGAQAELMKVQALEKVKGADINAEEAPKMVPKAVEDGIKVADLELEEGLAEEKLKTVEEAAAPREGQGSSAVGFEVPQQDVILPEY
T9 sequence (Q12852 whole entry): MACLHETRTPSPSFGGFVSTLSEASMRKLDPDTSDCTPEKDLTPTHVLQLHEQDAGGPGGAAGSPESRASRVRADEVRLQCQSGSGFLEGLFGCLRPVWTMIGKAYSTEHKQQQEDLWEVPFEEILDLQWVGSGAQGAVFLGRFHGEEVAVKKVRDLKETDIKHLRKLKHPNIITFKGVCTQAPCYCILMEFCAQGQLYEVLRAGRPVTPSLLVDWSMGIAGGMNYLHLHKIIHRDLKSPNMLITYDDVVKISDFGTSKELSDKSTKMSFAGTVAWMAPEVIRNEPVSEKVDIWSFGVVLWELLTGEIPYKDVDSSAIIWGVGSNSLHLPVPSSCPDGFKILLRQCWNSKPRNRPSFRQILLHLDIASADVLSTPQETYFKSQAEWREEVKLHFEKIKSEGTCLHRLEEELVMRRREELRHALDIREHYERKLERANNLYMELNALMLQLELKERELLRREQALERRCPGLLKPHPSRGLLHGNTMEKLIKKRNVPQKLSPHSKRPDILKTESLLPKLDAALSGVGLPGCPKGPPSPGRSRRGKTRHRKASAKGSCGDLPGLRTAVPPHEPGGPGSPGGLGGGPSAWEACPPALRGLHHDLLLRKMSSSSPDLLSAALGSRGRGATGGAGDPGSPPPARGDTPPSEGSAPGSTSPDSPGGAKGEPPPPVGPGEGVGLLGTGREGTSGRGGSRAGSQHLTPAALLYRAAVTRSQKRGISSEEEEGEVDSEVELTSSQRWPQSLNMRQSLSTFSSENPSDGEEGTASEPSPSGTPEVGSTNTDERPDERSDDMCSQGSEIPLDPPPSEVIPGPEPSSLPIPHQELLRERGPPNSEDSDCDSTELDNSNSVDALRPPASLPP
T8 sequence (P42679 whole entry): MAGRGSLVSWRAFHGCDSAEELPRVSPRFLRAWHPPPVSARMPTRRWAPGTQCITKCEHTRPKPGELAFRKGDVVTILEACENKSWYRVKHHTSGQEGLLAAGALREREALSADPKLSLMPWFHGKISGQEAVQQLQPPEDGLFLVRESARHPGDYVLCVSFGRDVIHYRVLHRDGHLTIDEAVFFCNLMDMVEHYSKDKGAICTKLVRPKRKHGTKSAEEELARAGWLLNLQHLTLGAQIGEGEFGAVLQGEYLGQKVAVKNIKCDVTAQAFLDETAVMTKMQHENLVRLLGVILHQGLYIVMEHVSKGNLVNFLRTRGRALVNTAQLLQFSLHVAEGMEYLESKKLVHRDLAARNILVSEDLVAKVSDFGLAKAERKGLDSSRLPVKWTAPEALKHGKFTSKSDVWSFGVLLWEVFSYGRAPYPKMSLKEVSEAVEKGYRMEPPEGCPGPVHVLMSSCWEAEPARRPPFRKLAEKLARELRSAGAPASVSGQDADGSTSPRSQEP
T16 sequence (Q9P0L2 whole entry): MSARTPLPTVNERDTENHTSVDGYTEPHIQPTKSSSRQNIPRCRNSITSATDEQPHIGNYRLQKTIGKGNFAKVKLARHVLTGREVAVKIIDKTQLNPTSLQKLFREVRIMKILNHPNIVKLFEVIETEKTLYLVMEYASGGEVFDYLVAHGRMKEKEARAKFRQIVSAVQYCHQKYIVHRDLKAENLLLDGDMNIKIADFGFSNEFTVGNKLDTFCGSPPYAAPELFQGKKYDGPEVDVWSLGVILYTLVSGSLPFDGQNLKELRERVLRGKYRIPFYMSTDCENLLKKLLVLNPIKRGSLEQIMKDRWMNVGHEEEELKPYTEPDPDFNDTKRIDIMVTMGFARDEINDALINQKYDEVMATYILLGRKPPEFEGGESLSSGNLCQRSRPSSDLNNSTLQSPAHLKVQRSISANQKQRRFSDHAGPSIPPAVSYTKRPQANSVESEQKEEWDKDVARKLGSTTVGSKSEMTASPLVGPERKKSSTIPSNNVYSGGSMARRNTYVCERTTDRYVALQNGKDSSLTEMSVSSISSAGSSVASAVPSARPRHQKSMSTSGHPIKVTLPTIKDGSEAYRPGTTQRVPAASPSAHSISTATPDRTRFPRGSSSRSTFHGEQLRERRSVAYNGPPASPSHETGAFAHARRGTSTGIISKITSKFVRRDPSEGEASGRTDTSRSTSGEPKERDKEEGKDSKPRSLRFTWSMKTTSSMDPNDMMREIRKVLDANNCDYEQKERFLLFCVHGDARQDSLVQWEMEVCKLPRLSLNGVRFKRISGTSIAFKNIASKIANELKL
T10 sequence (O94768 whole entry): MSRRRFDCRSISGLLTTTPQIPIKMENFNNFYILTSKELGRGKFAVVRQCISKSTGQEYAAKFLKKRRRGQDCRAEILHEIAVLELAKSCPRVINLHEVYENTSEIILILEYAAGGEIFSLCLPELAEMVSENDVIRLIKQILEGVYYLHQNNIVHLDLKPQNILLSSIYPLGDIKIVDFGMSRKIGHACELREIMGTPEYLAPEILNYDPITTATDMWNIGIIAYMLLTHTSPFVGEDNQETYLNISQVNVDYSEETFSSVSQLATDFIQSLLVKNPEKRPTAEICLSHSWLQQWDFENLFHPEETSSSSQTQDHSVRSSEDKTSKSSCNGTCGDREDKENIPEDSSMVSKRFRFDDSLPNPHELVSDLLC

Which results are given for `C=CC(=O)Nc1ccc(OC)c(Nc2cc(-c3[nH]c(CC)nc3-c3cccc(NC(=O)c4cccc5c4NC(=O)c4ccccc4N5)c3)ccn2)c1` [Compound 4]?
POC [1]: 85% of control; POC [2]: 74% of control; POC [3]: 90% of control; POC [4]: 100% of control; POC (AXL): 98% of control; POC (BRK): 96% of control; POC (CAMK4): 99% of control; POC (CDK4-cyclinD1): 94% of control; POC (CDK4-cyclinD3): 49% of control; POC (CSNK1A1): 56% of control; POC (CSNK2A1): 100% of control; POC (CTK): 54% of control; POC (DLK): 100% of control; POC (DRAK2): 94% of control; POC (EGFR(S752-I759del)): 6% of control; POC (ERK2): 100% of control; POC (ERK3): 100% of control; POC (ERK4): 100% of control; POC (ERN1): 74% of control; POC (GRK3): 100% of control; POC (GRK4): 100% of control; POC (IKK-beta): 88% of control; POC [5]: 91% of control; POC (LATS2): 62% of control; POC (MARK1): 92% of control; POC (MET(M1250T)): 89% of control; POC (NEK2): 98% of control; POC (NEK4): 100% of control; POC (p38-beta): 59% of control; POC (PCTK2): 100% of control; POC (PIK3CA(E545K)): 100% of control; POC (PLK2): 100% of control; POC (PRKG1): 100% of control; POC (RIOK1): 100% of control; POC [6]: 83% of control; POC [7]: 80% of control; POC (SGK2): 83% of control; POC (SLK): 100% of control; POC (TLK2): 87% of control; POC (TNIK): 33% of control; POC (TRKA): 77% of control
